The source of these data is patent publication US10640497B2, “Microbiocidal oxadiazole derivatives” (SYNGENTA PARTICIPATIONS AG, priority 2015, dated 2020).

Each structure is given as a SMILES string. Some results are limits rather than exact numbers.

In one experiment the test system is Phakopsora pachyrhizi. As to the kind of experiment: Fungicidal activity against Phakopsora pachyrhizi, soybean, leaf disc preventative (Asian soybean rust). Type of experiment: in vivo. Particulars: foliar, 288 h, 12-14 days after application, compared to untreated control. The procedure: Leaf disks or leaf segments of various plant species are cut from plants grown in a greenhouse. The cut leaf disks or segments are placed in multiwell plates (24-well format) onto water agar. The leaf disks are sprayed with a test solution before (preventative) or after (curative) inoculation. Compounds to be tested are prepared as DMSO solutions (max. 10 mg/ml) which are diluted to the appropriate concentration with 0.025% Tween20 just before spraying. The inoculated leaf disks or segments are incubated under defined conditions (temperature, relative humidity, light, etc.) according to the respective test system. A single evaluation of disease level is carried out 3 to 14 days after inoculation, depending on the pathosystem. Percent disease control relative to the untreated check leaf disks or segments is then calculated. Soybean leaf disks are placed on water agar in multiwell plates (24-well format) and sprayed with the formulated test compound diluted in water. One day after application leaf discs are inoculated by spraying a spore suspension on the lower leaf surface. After an incubation period in a climate cabinet of 24-36 hours in darkness at 20° C. and 75% rh leaf disc are kept at 20° C. with 12 h light/day and 75% rh. The activity of a compound is assessed as percent disease control compared to untreated when an appropriate level of disease damage appears in untreated check leaf disks (12-14 days after application).

The test system of experiment [1] is Puccinia recondita f. sp. tritici. As to the kind of experiment: Fungicidal activity against Puccinia recondita f. sp. tritici, wheat, leaf disc preventative (brown rust). The format is in vivo. Particulars: foliar, wheat leaf segments, preventative (inoculated 1 day after application), 7-9 days after application, compared to untreated control. How it is done: (§1) Leaf disks or leaf segments of various plant species are cut from plants grown in a greenhouse. The cut leaf disks or segments are placed in multiwell plates (24-well format) onto water agar. The leaf disks are sprayed with a test solution before (preventative) or after (curative) inoculation. Compounds to be tested are prepared as DMSO solutions (max. 10 mg/ml) which are diluted to the appropriate concentration with 0.025% Tween20 just before spraying. The inoculated leaf disks or segments are incubated under defined conditions (temperature, relative humidity, light, etc.) according to the respective test system. A single evaluation of disease level is carried out 3 to 14 days after inoculation, depending on the pathosystem. Percent disease control relative to the untreated check leaf disks or segments is then calculated. Wheat leaf segments cv. Kanzler are placed on agar in multiwell plates (24-well format) and sprayed with the formulated test compound diluted in water. The leaf segments are inoculated with a spore suspension of the fungus 1 day after application. The inoculated leaf segments are incubated at 19° C. and 75% rh under a light regime of 12 h light/12 h darkness in a climate cabinet and the activity of a compound is assessed as percent disease control compared to untreated when an appropriate level of disease damage appears in untreated check leaf segments (7-9 days after application).

Experiment [2] concerns Glomerella lagenarium (Colletotrichum lagenarium). As to the kind of experiment: Fungicidal activity against Glomerella lagenarium (Colletotrichum lagenarium), liquid culture, cucumber, preventative (anthracnose). The settings on record: Colletotrichum orbiculare, liquid culture (PDB), growth inhibition measured photometrically 3-4 days after application, compared to untreated control. The format is cell-based. The procedure:
Mycelia fragments or conidia suspensions of a fungus, prepared either freshly from liquid cultures of the fungus or from cryogenic storage, are directly mixed into nutrient broth. DMSO solutions of the test compound (max. 10 mg/ml) is diluted with 0.025% Tween20 by a factor of 50 and 10 μl of this solution is pipetted into a microtiter plate (96-well format). The nutrient broth containing the fungal spores/mycelia fragments is then added to give an end concentration of the tested compound. The test plates are incubated in the dark at 24° C. and 96% relative humidity. The inhibition of fungal growth is determined photometrically after 2 to 7 days, depending on the pathosystem, and percent antifungal activity relative to the untreated check is calculated. Conidia of the fungus from cryogenic storage are directly mixed into nutrient broth (PDB potato dextrose broth). After placing a (DMSO) solution of test compound into a microtiter plate (96-well format), the nutrient broth containing the fungal spores is added. The test plates are incubated at 24° C. and the inhibition of growth is measured photometrically 3-4 days after application.

Experiment [3] deals with Puccinia recondita f. sp. tritici. As to the kind of experiment: Fungicidal activity against Puccinia recondita f. sp. tritici, wheat, leaf disc curative (brown rust). The format is in vivo. The settings on record: foliar, 144 h, wheat leaf segments, curative (applied 1 day after inoculation), 6-8 days after application, compared to untreated control. The procedure: as §1, with “plates (24-well format). The leaf” for “plates (24-well format) and sprayed with the formulated test compound diluted in water. The leaf”, “of the fungus. Plates are stored in darkness at 19° C. and 75% rh. The formulated test compound diluted in water is applied 1 day” for “of the fungus 1 day”, “day after inoculation. The leaf” for “day after application. The inoculated”, “inoculation. The leaf segments” for “application. The inoculated leaf segments”, “leaf segments (6-8 days after” for “leaf segments (7-9 days after”

In general, pest or weed control refers to the degree to which the test organism was suppressed or injured, in per cent. For orientation: inhibition of growth means how much of the control response was suppressed. Turning to `O=C1CCCN1Cc1ccc(-c2noc(C(F)(F)F)n2)cc1` [Compound A-1, 1-[[4-[5-(trifluoromethyl)-1,2,4-oxadiazol-3-yl]phenyl]methyl]pyrrolidin-2-one], the pest or weed control at 200 ppm (with Phakopsora pachyrhizi; in experiment [1]; in experiment [3]) was no less than 80% throughout. The inhibition of growth at 20 ppm in experiment [2] is no less than 80%.

Consider `O=C1CCCCN1Cc1ccc(-c2noc(C(F)(F)F)n2)cc1` [Compound A-2, 1-[[4-[5-(trifluoromethyl)-1,2,4-oxadiazol-3-yl]phenyl]methyl]piperidin-2-one], for which the pest or weed control at 200 ppm (in the experiment on Phakopsora pachyrhizi; in experiment [1]; in experiment [3]) was no less than 80% throughout.

Turning to `O=C1COCCN1Cc1ccc(-c2noc(C(F)(F)F)n2)cc1` [Compound A-3, 4-[[4-[5-(trifluoromethyl)-1,2,4-oxadiazol-3-yl]phenyl]methyl]morpholin-3-one], the pest or weed control at 200 ppm (with Phakopsora pachyrhizi; in experiment [1]; in experiment [3]) was no less than 80% each time.

`CC1(C)CON(Cc2ccc(-c3noc(C(F)(F)F)n3)cc2)C1=O` [Compound A-4, 4,4-dimethyl-2-[[4-[5-(trifluoromethyl)-1,2,4-oxadiazol-3-yl]phenyl]methyl]isoxazolidin-3-one]: the pest or weed control at 200 ppm (in the experiment on Phakopsora pachyrhizi; in experiment [1]; in experiment [3]) was no less than 80% each time. The molecule also had an inhibition of growth at 20 ppm in experiment [2] of no less than 80%.

Turning to `O=C1CCCN1Cc1ccc(-c2noc(C(F)(F)F)n2)cn1` [Compound A-28, 1-[[5-[5-(trifluoromethyl)-1,2,4-oxadiazol-3-yl]-2-pyridyl]methyl]pyrrolidin-2-one], the pest or weed control at 200 ppm in experiment [1] and in experiment [3] was no less than 80% each time. In experiment [2], this molecule yielded an inhibition of growth at 20 ppm of no less than 80%.

`COCC(=O)N1CCN(Cc2ccc(-c3noc(C(F)(F)F)n3)cc2)C(=O)C1` [Compound A-31, 4-(2-methoxyacetyl)-1-[[4-[5-(trifluoromethyl)-1,2,4-oxadiazol-3-yl]phenyl]methyl]piperazin-2-one]: the pest or weed control at 200 ppm in experiment [1] and in experiment [3] was no less than 80% throughout. Also, the inhibition of growth at 20 ppm in experiment [2] is no less than 80%.

Turning to `O=C1CNCCN1Cc1ccc(-c2noc(C(F)(F)F)n2)cc1` [Compound A-36, 1-[[4-[5-(trifluoromethyl)-1,2,4-oxadiazol-3-yl]phenyl]methyl]piperazin-4-ium-2-one; chloride], the pest or weed control at 200 ppm in experiment [1] is no less than 80%.

For the molecule `O=C1CCCCN1Cc1ccc(-c2noc(C(F)(F)F)n2)c(F)c1` [Compound A-44, 1-[[3-fluoro-4-[5-(trifluoromethyl)-1,2,4-oxadiazol-3-yl]phenyl]methyl]piperidin-2-one], the pest or weed control at 200 ppm in experiment [1] and in experiment [3] was no less than 80% throughout. The molecule also had an inhibition of growth at 20 ppm in experiment [2] of no less than 80%.

Consider `O=C1OCCN1Cc1ccc(-c2noc(C(F)(F)F)n2)cc1` [Compound A-45, 3-[[4-[5-(trifluoromethyl)-1,2,4-oxadiazol-3-yl]phenyl]methyl]oxazolidin-2-one], for which the pest or weed control at 200 ppm in experiment [1] and in experiment [3] was no less than 80% in each case. In experiment [2], this molecule displayed an inhibition of growth at 20 ppm of no less than 80%.

In experiment [2], `CC1(C)CCCN(Cc2ccc(-c3noc(C(F)(F)F)n3)nc2)C1=O` [Compound A-52, 3,3-dimethyl-1-[[6-[5-(trifluoromethyl)-1,2,4-oxadiazol-3-yl]-3-pyridyl]methyl]piperidin-2-one] showed an inhibition of growth at 20 ppm of no less than 80%.

On to `CS(=O)(=O)N1CC(=O)N(Cc2ccc(-c3noc(C(F)(F)F)n3)cc2)C(=O)C1` [Compound A-59, 4-methylsulfonyl-1-[[4-[5-(trifluoromethyl)-1,2,4-oxadiazol-3-yl]phenyl]methyl]piperazine-2,6-dione], for which the pest or weed control at 200 ppm (in the experiment with Phakopsora pachyrhizi; in experiment [1]) was no less than 80% in each case. The same molecule displayed an inhibition of growth at 20 ppm in experiment [2] of no less than 80%.

`CN(C)S(=O)(=O)N1CC(=O)N(Cc2ccc(-c3noc(C(F)(F)F)n3)cc2)C(=O)C1` [Compound A-60, N,N-dimethyl-3,5-dioxo-4-[[4-[5-(trifluoromethyl)-1,2,4-oxadiazol-3-yl]phenyl]methyl]piperazine-1-sulfonamide]: the pest or weed control at 200 ppm (in the experiment with Phakopsora pachyrhizi; in experiment [1]) was no less than 80% throughout.

In experiment [2], `O=C1CNCC(=O)N1Cc1ccc(-c2noc(C(F)(F)F)n2)cc1` [Compound A-61, 1-[[4-[5-(trifluoromethyl)-1,2,4-oxadiazol-3-yl]phenyl]methyl]piperazin-4-ium-2,6-dione; chloride] gave an inhibition of growth at 20 ppm of no less than 80%.

As to `O=C1CCCN1Cc1ccc(-c2noc(C(F)(F)F)n2)c(F)c1` [Compound A-63, 1-[[3-fluoro-4-[5-(trifluoromethyl)-1,2,4-oxadiazol-3-yl]phenyl]methyl]pyrrolidin-2-one], the pest or weed control at 200 ppm in experiment [1] and in experiment [3] was no less than 80% throughout. Also, in experiment [2], the inhibition of growth at 20 ppm is no less than 80%.

As for `CC1(C)CON(Cc2ccc(-c3noc(C(F)(F)F)n3)c(F)c2)C1=O` [Compound A-64, 2-[[3-fluoro-4-[5-(trifluoromethyl)-1,2,4-oxadiazol-3-yl]phenyl]methyl]-4,4-dimethyl-isoxazolidin-3-one], in experiment [1], the pest or weed control at 200 ppm was no less than 80%. In experiment [2], this molecule registered an inhibition of growth at 20 ppm of no less than 80%.

Consider `O=S1(=O)CCCN1Cc1ccc(-c2noc(C(F)(F)F)n2)cc1Cl` [Compound B-2, 2-[[2-chloro-4-[5-(trifluoromethyl)-1,2,4-oxadiazol-3-yl]phenyl]methyl]-1,2-thiazolidine 1,1-dioxide], for which, in experiment [1], the pest or weed control at 200 ppm is no less than 80%. Besides, in experiment [2], the inhibition of growth at 20 ppm was no less than 80%.

With `CN1CCCN(Cc2ccc(-c3noc(C(F)(F)F)n3)cc2)S1(=O)=O` [Compound B-3, 2-methyl-6-[[4-[5-(trifluoromethyl)-1,2,4-oxadiazol-3-yl]phenyl]methyl]-1,2,6-thiadiazinane 1,1-dioxide], the pest or weed control at 200 ppm in experiment [1] and in experiment [3] was no less than 80% throughout. In experiment [2], this molecule displayed an inhibition of growth at 20 ppm of no less than 80%.

In the case of `CN1CCCN(Cc2ccc(-c3noc(C(F)(F)F)n3)cc2Cl)S1(=O)=O` [Compound B-4, 2-[[2-chloro-4-[5-(trifluoromethyl)-1,2,4-oxadiazol-3-yl]phenyl]methyl]-6-methyl-1,2,6-thiadiazinane 1,1-dioxide], the inhibition of growth at 20 ppm in experiment [2] was no less than 80%.
